Test results as given in patent publication US6967200B2, “Remedies for cirrhosis” (Shionogi & Co., Ltd., priority 2000, dated 2005).

Biological target: T1, Human type-X sPLA2 (Homo sapiens, UniProt O15496)
T1 construct: made in house; host or cells: CHO cells stably transfected with a pSVL SV40 late promoter expression vector; unpurified culture supernatant used as the enzyme source
T1 sequence (O15496 43-165): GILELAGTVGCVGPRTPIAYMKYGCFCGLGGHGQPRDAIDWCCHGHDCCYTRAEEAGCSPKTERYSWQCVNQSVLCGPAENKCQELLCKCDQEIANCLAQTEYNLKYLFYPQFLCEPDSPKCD
Experiment: type-X sPLA2 inhibition test (chromogenic assay, diheptanoylthio PC substrate)
Assay type: biochemical
Conditions: diheptanoylthio PC 1 mM, 30 min at 40° C., pH 7.5, absorbance at 405 nm
From the text: cDNA sequence encoding human type-X sPLA2 (Cupillard et al., J. Biol. Chem, 1997, 272, 15745-15752) was inserted into the downstream region of the promoter of pSVL SV40 Late Promoter Expression Vector (Amersham Pharmacia Biotech Inc.) that is an expression vector for mammalian cells. The obtained expression vector was transfected into the host CHO cells with a LipofectAMINE reagent (Gibco BRL Inc.) according to the manufacture's instruction to obtain the CHO cells stably expressing human type-X sPLA2.
In order to identify and evaluate an inhibitor of type-X sPLA2, the following chromogenic assay is utilized. This assay has been applied for high volume screening using a 96-well microtiterplate. A general explanation for this assay is described in “Analysis of Human Synovial Fluid Phospholipase A2 on Short Chain Phosphatidylcholine-Mixed Micelles: Development of a Spectrophotometric Assay Suitable for a Micortiterplate Reader” (Analytical Biochemistry, 204, pp 190-197, 1992 by Laure. J. Reynolds. Lori L. Hughes and Edward A. Dennis.
Human type-X sPLA2 was incubated (30 min at 40° C. (15 μl/well)) with diheptanoylthio PC (1 mM) in the presence of Triton X-100 (0.3 mM) and 5,5′-dithiobis(2-nitrobenzoic acid) (125 μM) in Tris-HCl buffer (25 mM, pH 7.5) containing CaCl2 (10 mM), KCl (100 mM), and bovine serum albumin (1.0 mg/mL). […]

## NC(=O)C1=CCCc2c1c1c(OCC(=O)O)nccn1c2Cc1ccccc1 [Compound 7]
  IC50: 5 nM
